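Results reflect a 48-hour exposure of cells in 96-well plates to compound at five concentrations. GI50 is the concentration that inhibits growth by half.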 Activity calls are given as the source filed them. No stated cut-off is given here; in the data, active = GI50 up to about 1.1 µM and inactive = higher. Starred links: 1 amine or outer side, 2 acyl side, 3 side chain; linkers in the order of their positions; H or OH if unused. Non-standard residues stand in square brackets, D forms with d. Residues, ends and D or L forms follow the SMILES beside them. *: point of attachment. X34 = CC(=O)N(C)SCC(N[*:1])C(=O)[*:2]; Cbz = O=C(OCc1ccccc1)*; Bn = c1ccc(C*)cc1; For = O=C*
Tests used:
Assay in all cases: DTP human tumour cell line panel, 48 h
ACHN = test system: ACHN
DU-145 = test system: DU-145
HCT-116 = test system: HCT-116
HCT-15 = test system: HCT-15
HOP-92 = test system: HOP-92
IGROV-1 = test system: IGROV-1
K562 = test system: K562
KM12 = test system: KM12
MDA-N = test system: MDA-N
MOLT-4 = test system: MOLT-4
NCI-H23 = test system: NCI-H23
OVCAR-8 = test system: OVCAR-8
PC-3 = test system: PC-3
RPMI-8226 = test system: RPMI-8226
SF-268 = test system: SF-268
SF-295 = test system: SF-295
SF-539 = test system: SF-539
SK-OV-3 = test system: SK-OV-3
SNB-19 = test system: SNB-19
T47D = test system: T47D

Row | Structure (SMILES) | GI50 (ACHN) | GI50 (DU-145) | GI50 (HCT-116) | GI50 (HCT-15) | GI50 (HOP-92) | GI50 (IGROV-1) | GI50 (K562) | GI50 (KM12) | GI50 (MDA-N) | GI50 (MOLT-4) | GI50 (NCI-H23) | GI50 (OVCAR-8) | GI50 (PC-3) | GI50 (RPMI-8226) | GI50 (SF-268) | GI50 (SF-295) | GI50 (SF-539) | GI50 (SK-OV-3) | GI50 (SNB-19) | GI50 (T47D)
1 | NS(=O)(=O)c1ccc(NC(=S)N/C=C2\C(=O)Nc3ccccc3C2=O)cc1 | > 100 µM (inactive) | > 100 µM (inactive) | > 100 µM (inactive) | > 100 µM | > 100 µM (inactive) | > 100 µM (inactive) | > 100 µM (inactive) | > 100 µM (inactive) | > 100 µM (inactive) | > 100 µM (inactive) | > 100 µM (inactive) | > 100 µM (inactive) | > 100 µM (inactive) | > 100 µM (inactive) | > 100 µM (inactive) | > 100 µM (inactive) | > 100 µM (inactive) | > 100 µM (inactive) | > 100 µM (inactive) | > 100 µM (inactive)
2 | COC(=O)c1cc2ccc(OC(C)=O)c(OC(C)=O)c2cn1 | 17.1 µM (inactive) | 24.7 µM (inactive) | 17.3 µM (inactive) | 20.4 µM | 17.1 µM (inactive) | 18.6 µM (inactive) | 2.72 µM (inactive) | 18.7 µM (inactive) | 1.5 µM (inactive) | 4.12 µM (inactive) | 18 µM (inactive) | 7.64 µM (inactive) | 20.7 µM (inactive) | 2.16 µM (inactive) | 20.8 µM (inactive) | 4.95 µM (inactive) | 19.1 µM (inactive) | 19.4 µM (inactive) | > 10 µM (inactive) | > 10 µM (inactive)
3 | COc1ccc2nc3cc(Cl)ccc3c(NCCCN(CCCl)CCCl)c2c1 | < 0.01 µM (active) | 0.0121 µM (active) | 0.012 µM (active) | 0.0253 µM | 0.0126 µM (active) | 0.0324 µM (active) | 0.0123 µM (active) | 0.052 µM (active) | 0.0318 µM (active) | < 0.01 µM (active) | 0.0116 µM (active) | 0.0125 µM (active) | < 0.01 µM (active) | < 0.01 µM (active) | 0.0164 µM (active) | 0.0142 µM (active) | 0.0111 µM (active) | 0.0484 µM (active) | 0.0225 µM (active) | < 0.01 µM (active)
4 | CSCCC(N)C(=O)NCCNc1ccc(NCCNC(=O)C(N)CCSC)c2c1C(=O)c1ccccc1C2=O (stereo not given) | 0.456 µM (active) | 0.798 µM (active) | 0.424 µM (active) | 1.22 µM | 1.1 µM (active) | 2.12 µM (inactive) | 1.42 µM (inactive) | 1.27 µM (inactive) | 1.69 µM (inactive) | 0.123 µM (active) | 1.05 µM (active) | 0.441 µM (active) | 1.84 µM (inactive) | 1.35 µM (inactive) | 0.659 µM (active) | 1.57 µM (inactive) | 0.973 µM (active) | 2.62 µM (inactive) | 0.927 µM (active) | 2.5 µM (inactive)
5 | COc1ccc(COCC[C@H](C)OC2OC(CO[Si](C)(C)C(C)(C)C)C(O)C(O)C2O)cc1 (stereo not given in full) | > 100 µM (inactive) | > 100 µM (inactive) | > 100 µM (inactive) | > 100 µM | > 100 µM (inactive) | > 100 µM (inactive) | > 100 µM (inactive) | > 100 µM (inactive) | > 100 µM (inactive) | 56.9 µM (inactive) | > 100 µM (inactive) | > 100 µM (inactive) | 72.9 µM (inactive) | > 100 µM (inactive) | > 100 µM (inactive) | > 100 µM (inactive) | > 100 µM (inactive) | > 100 µM (inactive) | > 100 µM (inactive) | > 100 µM (inactive)
6 | O=c1[nH]c2cc([N+](=O)[O-])c(N(CCO)CCO)c([N+](=O)[O-])c2[nH]1 | 43.7 µM (inactive) | 39.4 µM (inactive) | 27.7 µM (inactive) | 31.3 µM | 41 µM (inactive) | 65.5 µM (inactive) | 32 µM (inactive) | 22.6 µM (inactive) | 33.7 µM (inactive) | 24.5 µM (inactive) | 30.5 µM (inactive) | 31.3 µM (inactive) | 44.4 µM (inactive) | 26.7 µM (inactive) | 37.4 µM (inactive) | 28.4 µM (inactive) | 23.8 µM (inactive) | 27 µM (inactive) | 39.8 µM (inactive) | 19.5 µM (inactive)
7 | COC(=O)c1ccc(-n2c(C)nc(=O)c(-c3ccccc3)c2C)cc1 | > 100 µM (inactive) | > 100 µM (inactive) | > 100 µM (inactive) | > 100 µM | > 100 µM (inactive) | > 100 µM (inactive) | > 100 µM (inactive) | > 100 µM (inactive) | > 10 µM (inactive) | > 100 µM (inactive) | > 100 µM (inactive) | > 100 µM (inactive) | > 100 µM (inactive) | > 100 µM (inactive) | > 100 µM (inactive) | > 100 µM (inactive) | 74 µM (inactive) | > 100 µM (inactive) | > 100 µM (inactive) | > 100 µM (inactive)
8 | N#Cc1c(-c2ccc(Cl)cc2)c2c([nH]c1=O)-c1cc([N+](=O)[O-])ccc1CCC2 | 25.3 µM (inactive) | 35.8 µM (inactive) | 14.3 µM (inactive) | 14.3 µM | 14.4 µM (inactive) | 21 µM (inactive) | 35.4 µM (inactive) | 16.4 µM (inactive) | 26.7 µM (inactive) | 38 µM (inactive) | 15.2 µM (inactive) | 20.5 µM (inactive) | 29.4 µM (inactive) | 86.7 µM (inactive) | 17.3 µM (inactive) | 11.3 µM (inactive) | 17.9 µM (inactive) | 28.7 µM (inactive) | 20.5 µM (inactive) | 30.9 µM (inactive)
9 | CC(=O)c1ccc(O)c(CN(C2CCCCC2)C2CCCCC2)c1O | > 100 µM (inactive) | > 100 µM (inactive) | > 100 µM (inactive) | > 100 µM | > 100 µM (inactive) | > 100 µM (inactive) | > 100 µM (inactive) | > 100 µM (inactive) | > 100 µM (inactive) | 61.4 µM (inactive) | > 100 µM (inactive) | > 100 µM (inactive) | > 100 µM (inactive) | > 100 µM (inactive) | > 100 µM (inactive) | > 100 µM (inactive) | > 100 µM (inactive) | > 100 µM (inactive) | > 100 µM (inactive) | 21.6 µM (inactive)
10 | CC1(C)OC2CN(C(=O)OCc3ccccc3)C(CO)C2O1 (stereo not given) | > 100 µM (inactive) | > 100 µM (inactive) | > 100 µM (inactive) | > 100 µM | > 100 µM (inactive) | > 100 µM (inactive) | > 100 µM (inactive) | > 100 µM (inactive) | > 100 µM (inactive) | > 100 µM (inactive) | > 100 µM (inactive) | > 100 µM (inactive) | > 100 µM (inactive) | > 100 µM (inactive) | > 100 µM (inactive) | > 100 µM (inactive) | > 100 µM (inactive) | > 100 µM (inactive) | > 100 µM (inactive) | > 100 µM (inactive)
11 | COC(=O)c1sc2c(c1C(=O)OC)/C(=N/c1ccc(OC)cc1)S/C2=N\c1ccc(OC)cc1 | 1.24 µM (inactive) | 0.525 µM (active) | 0.451 µM (active) | 0.452 µM | 1.51 µM (inactive) | 1.2 µM (inactive) | 0.389 µM (active) | 1.22 µM (inactive) | 1.15 µM (inactive) | 0.248 µM (active) | 1.57 µM (inactive) | 0.944 µM (active) | 0.462 µM (active) | 0.275 µM (active) | 1.55 µM (inactive) | 1.68 µM (inactive) | 0.274 µM (active) | 1.69 µM (inactive) | 1.52 µM (inactive) | 0.982 µM (active)
12 | O=[N+]([O-])c1ccc2c(c1)N=C1OC(c3c[nH]c4ccc(COc5ccccc5)cc34)C(O)=C1N2 (stereo not given) | > 100 µM (inactive) | > 100 µM (inactive) | 72.8 µM (inactive) | > 100 µM | > 100 µM (inactive) | > 100 µM (inactive) | 3.73 µM (inactive) | > 100 µM (inactive) | > 100 µM (inactive) | 1.82 µM (inactive) | > 100 µM (inactive) | > 100 µM (inactive) | > 100 µM (inactive) | > 100 µM (inactive) | > 100 µM (inactive) | 47.6 µM (inactive) | > 100 µM (inactive) | 98.9 µM (inactive) | > 100 µM (inactive) | > 100 µM (inactive)
13 | CNc1c2c(c3nc4ccccc4c4c3c1N=C4)NCCC2=O [PLAKINIDINE A] | 2.07 µM (inactive) | > 10 µM (inactive) | 1.77 µM (inactive) | 6.4 µM | 4.51 µM (inactive) | 4.42 µM (inactive) | 2.43 µM (inactive) | 4.79 µM (inactive) | 7.35 µM (inactive) | 1.32 µM (inactive) | 7.13 µM (inactive) | 2.38 µM (inactive) | 3.46 µM (inactive) | 2.57 µM (inactive) | 3.33 µM (inactive) | 4.5 µM (inactive) | 3.9 µM (inactive) | 8.04 µM (inactive) | > 10 µM (inactive) | 3.78 µM (inactive)
14 | CC(=O)N(C)SCC(NC(=O)C(Cc1ccccc1)NC(=O)OCc1ccccc1)C(=O)NC(Cc1ccccc1)C(=O)NC(Cc1cn(C=O)c2ccccc12)C(=O)NC(CCCCNC(=O)OCc1ccccc1)C(=O)NC(C(=O)NC(CSN(C)C(C)=O)C(=O)NC(C(N)=O)C(C)OCc1ccccc1)C(C)OCc1ccccc1 (stereo not given) (Cbz-F[X34]FW(For)K(Cbz)T(Bn)[X34]T(Bn)-NH2; configuration not given here) | > 100 µM (inactive) | > 100 µM (inactive) | 61.5 µM (inactive) | > 100 µM | 19.7 µM (inactive) | 68.9 µM (inactive) | > 100 µM (inactive) | > 100 µM (inactive) | > 100 µM (inactive) | > 100 µM (inactive) | 32 µM (inactive) | 26.1 µM (inactive) | > 100 µM (inactive) | > 100 µM (inactive) | > 100 µM (inactive) | 16.1 µM (inactive) | 44 µM (inactive) | 33.2 µM (inactive) | 18.7 µM (inactive) | > 100 µM (inactive)
